In ChEMBL document CHEMBL1201862, “PubChem BioAssay data set” (2004):
“And” between values parts separate entries of the source, which are not always exact repeats. Equal values may be shown once.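 The compound was tested at five concentrations on cells cultured in 96-well plates, with a 48-hour exposure period. Here, GI50 denotes the concentration required for 50% inhibition of growth.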 The source made the active and inactive calls. Cut-off read from the data, not from the text of the source: active = GI50 up to about 1.1 µM and inactive = higher.

Legend:
Test in all cases: DTP human tumour cell line panel, 48 h
CAKI-1 = test system: CAKI-1
HCC 2998 = test system: HCC 2998
HOP-62 = test system: HOP-62
IGROV-1 = test system: IGROV-1
LOX IMVI = test system: LOX IMVI
MDA-MB-435 = test system: MDA-MB-435
NCI-H226 = test system: NCI-H226
NCI/ADR-RES = test system: NCI/ADR-RES
OVCAR-3 = test system: OVCAR-3
OVCAR-4 = test system: OVCAR-4
OVCAR-5 = test system: OVCAR-5
SK-MEL-2 = test system: SK-MEL-2
SK-MEL-5 = test system: SK-MEL-5
A549 = test system: A549
ACHN = test system: ACHN
NCI-H522 = test system: NCI-H522
EKVX = test system: EKVX
SF-539 = test system: SF-539
DLD-1 = test system: DLD-1
KM-20L2 = test system: KM-20L2

Compound	GI50 (CAKI-1)	GI50 (HCC 2998)	GI50 (HOP-62)	GI50 (IGROV-1)	GI50 (LOX IMVI)	GI50 (MDA-MB-435)	GI50 (NCI-H226)	GI50 (NCI/ADR-RES)	GI50 (OVCAR-3)	GI50 (OVCAR-4)	GI50 (OVCAR-5)	GI50 (SK-MEL-2)	GI50 (SK-MEL-5)	GI50 (A549)	GI50 (ACHN)	GI50 (NCI-H522)	GI50 (EKVX)	GI50 (SF-539)	GI50 (DLD-1)	GI50 (KM-20L2)
CCn1c2ccccc2c2cc(NC(=O)c3c(C)[nH]c(=O)[nH]c3=S)ccc21	> 100 µM (inactive)	47.6 µM (inactive)	77.8 µM (inactive)	> 10 µM (inactive)	> 100 µM (inactive)	22.6 µM (inactive)	33 µM (inactive)	> 100 µM (inactive)	35.7 µM (inactive)	> 100 µM (inactive)	21.4 µM (inactive)	51.3 µM (inactive)	42.1 µM (inactive)	–	–	–	–	–	–	–
C1CCC(OC2CSC2)OC1 (stereo not given)	–	> 100 µM (inactive)	–	–	> 100 µM (inactive)	> 100 µM (inactive)	> 100 µM (inactive)	> 100 µM (inactive)	> 100 µM (inactive)	> 100 µM (inactive)	–	–	> 100 µM (inactive)	> 100 µM (inactive)	> 100 µM (inactive)	> 100 µM (inactive)	–	–	–	–
CCc1cc(=O)n(/C(C)=C/c2ccccc2)n1C	> 100 µM (inactive)	> 100 µM (inactive)	> 100 µM (inactive)	> 100 µM (inactive)	> 100 µM (inactive)	> 100 µM (inactive)	> 100 µM (inactive)	> 100 µM (inactive)	> 100 µM (inactive)	> 100 µM (inactive)	> 100 µM (inactive)	> 100 µM (inactive)	> 100 µM (inactive)	> 100 µM (inactive)	> 100 µM (inactive)	–	> 100 µM (inactive)	> 100 µM (inactive)	–	–
CC1=C(C)Cc2c(O)ccc(O)c2C1	18.2 µM (inactive)	–	21.5 µM (inactive)	–	19.9 µM (inactive)	16.8 µM (inactive)	17.4 µM (inactive)	36.5 µM (inactive)	20.4 µM (inactive)	–	20.7 µM (inactive)	–	14.6 µM (inactive)	18.7 µM (inactive)	17.4 µM (inactive)	–	14.5 µM (inactive)	20 µM (inactive)	–	–
CCCCCCCC/C=C\CCCCCCCCCCCC(=O)O [ERUCIC ACID]	42 µM (inactive)	44.1 µM (inactive)	30.1 µM (inactive)	55.1 µM (inactive)	29.4 µM (inactive)	–	52.4 µM (inactive)	86.3 µM (inactive)	17.8 µM (inactive)	30.8 µM (inactive)	102 µM (inactive)	18 µM (inactive)	18.8 µM (inactive)	38.5 µM (inactive)	–	19.8 µM (inactive)	34 µM (inactive)	16.8 µM (inactive)	42.4 µM (inactive)	38.3 µM (inactive)
CCNc1nnc(-c2nsc3ccccc23)s1	–	67.6 µM (inactive)	33.7 µM (inactive)	> 100 µM (inactive)	> 100 µM (inactive)	–	–	–	17.8 µM (inactive)	86.5 µM (inactive)	> 100 µM (inactive)	> 100 µM (inactive)	> 100 µM (inactive)	> 100 µM (inactive)	62.4 µM (inactive)	–	51.9 µM (inactive)	56.2 µM (inactive)	–	55.3 µM (inactive)
COc1cc2c3cc1Oc1c(OC)c(OC)cc4c1C(Cc1ccc(cc1)Oc1cc(ccc1O)CC3N(C)CC2)N(C)CC4 (stereo not given)	14.3 µM (inactive) and 16.9 µM (inactive)	–	18.1 µM (inactive)	16.7 µM (inactive) and 11.4 µM (inactive)	–	8.09 µM (inactive)	16.8 µM (inactive) and 18.9 µM (inactive)	19.3 µM (inactive)	13.6 µM (inactive) and 15.8 µM (inactive)	12.4 µM (inactive) and 14.1 µM (inactive)	18.5 µM (inactive) and 14.8 µM (inactive)	12.9 µM (inactive) and 8.69 µM (inactive)	–	14.9 µM (inactive) and 8.99 µM (inactive)	–	–	24.9 µM (inactive) and 13.1 µM (inactive)	–	11.4 µM (inactive)	10.4 µM (inactive)
C1=Cc2nccc3cc4c(c(c23)N1)OCO4	8.99 µM (inactive)	8.95 µM (inactive)	7.62 µM (inactive)	2.56 µM (inactive)	8.61 µM (inactive)	12.7 µM (inactive)	11.4 µM (inactive)	12.2 µM (inactive)	10.9 µM (inactive)	7.45 µM (inactive)	10.4 µM (inactive)	13.3 µM (inactive)	–	5.3 µM (inactive)	4.52 µM (inactive)	2.42 µM (inactive)	9.55 µM (inactive)	–	–	–
COc1ccc(/C(Cl)=C(\C=O)c2ccc(Cl)c(Cl)c2)cc1OC	5.08 µM (inactive)	–	16.3 µM (inactive)	> 10 µM (inactive)	3.37 µM (inactive)	–	4.84 µM (inactive)	–	13.1 µM (inactive)	–	–	1.87 µM (inactive)	12.8 µM (inactive)	–	4.56 µM (inactive)	2.36 µM (inactive)	9.53 µM (inactive)	5.89 µM (inactive)	4.46 µM (inactive)	6 µM (inactive)
C#CC(C)(C)Oc1cc(OC)c2c(=O)c3ccccc3n(C)c2c1	–	30.7 µM (inactive)	27 µM (inactive)	0.0238 µM (active)	–	11 µM (inactive)	16.6 µM (inactive)	13.8 µM (inactive)	–	7.8 µM (inactive)	31.8 µM (inactive)	16.3 µM (inactive)	11.1 µM (inactive)	9.86 µM (inactive)	12.7 µM (inactive)	–	20.9 µM (inactive)	26.1 µM (inactive)	–	–
COc1cccc(NC(=O)CC(=O)NNCC(=O)Nc2nnc(-c3ccc(N(CCC#N)S(=O)(=O)c4ccccc4)cc3)s2)c1	> 100 µM (inactive)	> 100 µM (inactive)	88.7 µM (inactive)	96.4 µM (inactive)	75.7 µM (inactive)	–	> 100 µM (inactive)	–	78.3 µM (inactive)	65.8 µM (inactive)	78.3 µM (inactive)	> 100 µM (inactive)	37.6 µM (inactive)	67.5 µM (inactive)	34.8 µM (inactive)	39 µM (inactive)	41 µM (inactive)	> 100 µM (inactive)	45.1 µM (inactive)	> 100 µM (inactive)
CC1CC(Br)C(=O)O1 (stereo not given)	> 100 µM (inactive)	> 100 µM (inactive)	> 100 µM (inactive)	> 100 µM (inactive)	> 100 µM (inactive)	> 100 µM (inactive)	–	> 100 µM (inactive)	> 100 µM (inactive)	> 100 µM (inactive)	> 100 µM (inactive)	> 100 µM (inactive)	> 100 µM (inactive)	> 100 µM (inactive)	> 100 µM (inactive)	> 100 µM (inactive)	> 100 µM (inactive)	> 100 µM (inactive)	–	–
NNc1nc2ccccc2s1	> 100 µM (inactive)	> 100 µM (inactive)	–	> 100 µM (inactive)	> 100 µM (inactive)	> 100 µM (inactive)	> 100 µM (inactive)	> 100 µM (inactive)	–	> 100 µM (inactive)	> 100 µM (inactive)	> 100 µM (inactive)	> 100 µM (inactive)	> 100 µM (inactive)	> 100 µM (inactive)	> 100 µM (inactive)	> 100 µM (inactive)	> 100 µM (inactive)	–	–
